Legend:
membrane GLUT4 = experiment: Membrane GLUT4 protein expression in C2C12 myotube cells (Western blot); format: cell-based; conditions: 1, 5, 10, and 25 μg/mL, 25 min
Experimental: (§1) In the present invention, C2C12 skeletal myoblasts (ATCC, CRL-1772) were maintained in growth media consisting of Dulbecco's modified Eagle's medium (DMEM) (Gibco BRL) and supplemented with 10% Fetal Bovine Serum (FBS) (Hyclone) and 100 U/mL penicillin/100 μg/mL streptomycin (Gibco BRL), and split 1:4 using 0.05% trypsin when 80% confluent. Myoblasts were diluted and placed in a 9 cm-diameter dish. Cells were cultured to achieve 80%-90% confluency and then the growth media was changed as 2% FBS/DMEM every 24 h for 5-7 days.
(§2) In experiments for determining GLUT4 and p-Akt(Ser473)/t-Akt proteins in tubes, differentiated C2C12 cells were serum-starved in DMEM/BSA for 2 h at 37° C. prior to incubation with MeOH crude extract (at 20, 100, 200, and 500 μg/mL), test compounds (at 1, 5, 10, and 25 μg/mL), or vehicle for 25 min, or 100 nM insulin for 25 min.
(§3) The cultures obtained by cell culture above were centrifuged, and the resulting pellet was resuspended in a homogenization buffer. The forgoing steps were performed with a filtration membrane. Protein concentrations were measured using a BCA assay (Pierce). Equal amounts of protein were diluted four times in SDS sample buffer, and subjected to SDS PAGE and Western blotting with antibodies specific for Akt, p-Akt Ser^473, and GLUT4. Density blotting analysis was performed using Alpha Easy FC software.

[1] = tested on: phospho-Akt(Ser473)/total-Akt(Ser473); experiment: phospho-Akt(Ser473)/total-Akt in C2C12 myotube cells (Western blot); format: cell-based; conditions: TT 10 and 25 μg/mL, 25 min
Experimental: as §1, §2, §3

C2C12 myoblasts = experiment: MTT test; format: cell-based; conditions: dose of 1 to 25 μg/mL
[2] = HFD-induced diabetic mice: histopathology (H-E) of epididymal white adipose and liver tissue; format: in vivo, C57BL/6J mice; conditions: for Adipocyte area: epididymal white adipose, 4 weeks
Experimental: (§4) The difference indicates the daily food intake.
Examination was performed for parts of EWAT (epididymal white adipose) and liver tissue specimens collected. The specimens above were soaked in formalin and neutral buffered solution and embedded in paraffin. Parts therein (8 μm) were cut and stained with hematoxylin and eosin. Images were photographed by a microscope (Olympus BX51, Olympus, Tokyo, Japan). Please refer to FIGS. 3(A) and 3(B).

G6-Pase = experiment: Semiquantitative RT-PCR in liver tissue: G6-Pase; format: in vivo, C57BL/6J mice; conditions: vs HF, 4 weeks
Experimental: as §4
(§5) Total RNA from liver tissue was isolated with a Trizol Reagent (Molecular Research Center, Inc., Cincinnati, Ohio, USA) according to the manufacturer's instructions. The integrity of the extracted total RNA was examined by 2% agarose gel electrophoresis, and the RNA concentration was determined by […] ultraviolet (UV) light absorbency at 260 nm and 280 nm (Spectrophotometer U-2800A, Hitachi). The total RNA (1 μg) was reverse transcribed to cDNA, and 5 μL Moloney murine leukemia virus reverse transcriptase (TEpicentre, Madison, Wis., USA). The PCR was performed in a final 25 μL containing 1 U Blend Taq-Plus (TOYOBO, Japan), 10 μL of the RT cDNA product, 10 μM of each forward (F) and reverse (R) primer, 75 mM Tris-HCL (pH 8.3) containing 1 mg/L Tween 20 (pH 8.3, also known as polyoxyethylene sorbitan monolaurate), 2.5 mM dNTP (deoxy-ribonucleoside triphosphate), and 2 mM MgCl2 (magnesium chloride). The PCR products were analyzed by 2% agarose gel and stained with ethidium bromide.

11β-HSD1 = experiment: Semiquantitative RT-PCR in liver tissue: 11β-HSD1; format: in vivo, C57BL/6J mice; conditions: vs HF, 4 weeks
Experimental: as §4, §5

GPAT = experiment: Semiquantitative RT-PCR in liver tissue: GPAT; format: in vivo, C57BL/6J mice; conditions: vs HF, 4 weeks
Experimental: as §4, §5

SREBP-2 = experiment: Semiquantitative RT-PCR in liver tissue: SREBP-2; format: in vivo, C57BL/6J mice; conditions: vs HF, 4 weeks
Experimental: as §4, §5

CPT-1a = experiment: Semiquantitative RT-PCR in liver tissue: CPT-1a; format: in vivo, C57BL/6J mice; conditions: vs HF, 4 weeks
Experimental: as §4, §5

UCP3 = experiment: Semiquantitative RT-PCR in liver tissue: UCP3; format: in vivo, C57BL/6J mice; conditions: vs HF, 4 weeks
Experimental: as §4, §5

PPARα = experiment: Western blot of PPARα protein in liver of HFD mice; conditions: compared to HF, 4 weeks
FAS = experiment: Western blot of FAS protein in liver and adipose tissue of HFD mice; conditions: compared to HF, 4 weeks
Experimental: (§6) The HFD mice were subdivided into 6 groups (9 per group) followed by 8-week induction. […] Following four-week treatment and feeding, the food was removed, and the mice were fasted for 12 h and then sacrificed. Tissue samples required were collected from the mice and weighted. Some of the tissue samples were immediately stored at −80° C. and frozen for subsequent target gene analysis. Plasma samples were collected via centrifugation of whole blood at 1600×g for 15 min at 4° C., followed by plasma separation within 30 min.
(§7) We determined PPARα and FAS protein expression levels in liver tissue, PPARγ and FAS protein expression levels in adipose tissue, and membrane GLUT4 expression in skeletal muscle adipose. The total membrane fraction was collected with the buffer and determined as previously described. The membrane GLUT4, p-AMPK, and total AMPK protein content were determined by Western Blotting as previously described.

[3] = HFD-induced diabetic mice: fasting blood glucose and biochemical indexes; conditions: 4 weeks; for Blood glucose: 12 h fasted HFD mice; for Plasma FFA / Insulin / Leptin / TC / TG: HFD mice; for Insulin / Leptin: blood; for TC / TG: plasma
Experimental: The control group and HFD group contained 10% and 45% fat intake, respectively. The HFD mice were subdivided into 6 groups (9 per group) followed by 8-week induction. […] During the experiment, all mice were fasted overnight, and blood samples were collected from the retro-orbital sinus. Following four-week treatment and feeding, the food was removed, and the mice were fasted for 12 h and then sacrificed. Tissue samples required were collected from the mice and weighted. Some of the tissue samples were immediately stored at −80° C. and frozen for subsequent target gene analysis. Plasma samples were collected via centrifugation of whole blood at 1600×g for 15 min at 4° C., followed by plasma separation within 30 min. Some plasma samples obtained were used for TG and TC analysis. The metabolic parameters, including body weight, weight gain, and food intake, were performed as follows. Body weight was daily measured throughout the study. Body weight gain is considered as the difference between one day and the next day. The total weight of food intake was daily measured, followed by weighing the amount of remaining feed after 24 h. The difference indicates the daily food intake.
One part of the forgoing blood samples collected from the retro-orbital sinus of 12 h fasted mice was immediately used for analysis of glucose levels. The other part was used for analysis of blood TG, TC, free fatty acids, blood insulin, leptin, and adiponectin levels. Blood glucose levels were determined by a glucose analyzer (Model 1500 sidekick glucose analyzer, YSI). Plasma triglycerides (TG), total cholesterol (TC), and free fatty acids (FFA) were determined using commercial kits in accordance with manufacturer's instructions (Triglycerides-E test, Cholesterol-E test, and FFA-C test; Wako Pure Chemical, Osaka, Japan). Insulin and leptin levels were measured by enzyme-linked immunosorbent assay (ELISA) (mouse insulin ELISA kit, Mercodia, Uppsala, Sweden; mouse leptin ELISA kit, Morinaga, Yokohama, Japan).

phospho-AMPK(Thr172) = experiment: Western blot of phospho-AMPK(Thr172)/total-AMPK in skeletal muscle and liver of HFD mice; conditions: compared to HF, 4 weeks
Experimental: as §6, §7

Structure (SMILES): C=C(CC[C@@H](C(=O)O)[C@H]1CC[C@@]2(C)C3=CC[C@H]4C(C)(C)[C@@H](O)CC[C@]4(C)C3=CC[C@]12C)C(C)C [TT, dehydroeburicoic acid]
- protein expression level of membrane GLUT4 (membrane GLUT4): increase
- protein expression level of phospho-Akt(Ser473)/total-Akt(Ser473) [1]: increase
- toxicity to C2C12 myoblasts in MTT test (C2C12 myoblasts): non-toxic
- Adipocyte area ([2]; HF+TT1, 10 mg/kg/day oral): 6872.5 ± 160.8 μm^2
- Adipocyte area ([2]; HF+TT2, 20 mg/kg/day oral): 6530.2 ± 148.2 μm^2
- Adipocyte area ([2]; HF+TT3, 40 mg/kg/day oral): 5972.4 ± 279.5 μm^2
- liver ballooning degeneration ([2]; pathohistological staining): reduce
- G6-Pase mRNA expression level in liver (G6-Pase; HF+TT1, 10 mg/kg/day oral): decreased
- G6-Pase mRNA expression level in liver (G6-Pase; HF+TT2, 20 mg/kg/day oral): decreased
- G6-Pase mRNA expression level in liver (G6-Pase; HF+TT3, 40 mg/kg/day oral): decreased
- 11β-HSD1 mRNA expression level in liver (11β-HSD1; HF+TT1, 10 mg/kg/day oral): decreased
- 11β-HSD1 mRNA expression level in liver (11β-HSD1; HF+TT2, 20 mg/kg/day oral): decreased
- 11β-HSD1 mRNA expression level in liver (11β-HSD1; HF+TT3, 40 mg/kg/day oral): decreased
- GPAT mRNA expression level in liver (GPAT; HF+TT1, 10 mg/kg/day oral): decreased
- GPAT mRNA expression level in liver (GPAT; HF+TT2, 20 mg/kg/day oral): decreased
- GPAT mRNA expression level in liver (GPAT; HF+TT3, 40 mg/kg/day oral): decreased
- SREBP-2 mRNA expression level in liver (SREBP-2; HF+TT1, 10 mg/kg/day oral): decreased
- SREBP-2 mRNA expression level in liver (SREBP-2; HF+TT2, 20 mg/kg/day oral): decreased
- SREBP-2 mRNA expression level in liver (SREBP-2; HF+TT3, 40 mg/kg/day oral): decreased
- CPT-1a mRNA expression level in liver (CPT-1a; HF+TT1, 10 mg/kg/day oral): increased
- CPT-1a mRNA expression level in liver (CPT-1a; HF+TT2, 20 mg/kg/day oral): increased
- CPT-1a mRNA expression level in liver (CPT-1a; HF+TT3, 40 mg/kg/day oral): increased
- UCP3 mRNA expression level in liver (UCP3; HF+TT2, 20 mg/kg/day oral): increased
- UCP3 mRNA expression level in liver (UCP3; HF+TT3, 40 mg/kg/day oral): increased
- PPAR protein expression level in liver (PPARα; HF+TT1, 10 mg/kg/day oral): significantly increased
- PPAR protein expression level in liver (PPARα; HF+TT2, 20 mg/kg/day oral): significantly increased
- PPAR protein expression level in liver (PPARα; HF+TT3, 40 mg/kg/day oral): significantly increased
- FAS protein expression level in adipose tissue (FAS; HF+TT1, 10 mg/kg/day oral): significantly decreased
- FAS protein expression level in liver (FAS; HF+TT1, 10 mg/kg/day oral): significantly decreased
- FAS protein expression level in adipose tissue (FAS; HF+TT2, 20 mg/kg/day oral): significantly decreased
- FAS protein expression level in liver (FAS; HF+TT2, 20 mg/kg/day oral): significantly decreased
- FAS protein expression level in adipose tissue (FAS; HF+TT3, 40 mg/kg/day oral): significantly decreased
- FAS protein expression level in liver (FAS; HF+TT3, 40 mg/kg/day oral): significantly decreased
- Blood glucose ([3]; HF+TT1, 10 mg/kg/day oral): 90.44 mg/dL
- Blood glucose ([3]; HF+TT2, 20 mg/kg/day oral): 82.89 mg/dL
- Blood glucose ([3]; HF+TT3, 40 mg/kg/day oral): 77.78 mg/dL
- Plasma FFA ([3]; HF+TT1, 10 mg/kg/day oral): 0.95 meq/L
- Plasma FFA ([3]; HF+TT2, 20 mg/kg/day oral): 0.87 meq/L
- Plasma FFA ([3]; HF+TT3, 40 mg/kg/day oral): 0.81 meq/L
- Insulin ([3]; HF+TT1, 10 mg/kg/day oral): 2.982 µg/L
- Leptin ([3]; HF+TT1, 10 mg/kg/day oral): 9.827 ng/mL
- Insulin ([3]; HF+TT2, 20 mg/kg/day oral): 2.625 µg/L
- Leptin ([3]; HF+TT2, 20 mg/kg/day oral): 8.468 ng/mL
- Insulin ([3]; HF+TT3, 40 mg/kg/day oral): 2.190 µg/L
- Leptin ([3]; HF+TT3, 40 mg/kg/day oral): 6.439 ng/mL
- TC ([3]; HF+TT1, 10 mg/kg/day oral): 120.55 mg/dL
- TG ([3]; HF+TT1, 10 mg/kg/day oral): 84.85 mg/dL
- TC ([3]; HF+TT2, 20 mg/kg/day oral): 114.93 mg/dL
- TG ([3]; HF+TT2, 20 mg/kg/day oral): 83.63 mg/dL
- TC ([3]; HF+TT3, 40 mg/kg/day oral): 112.46 mg/dL
- TG ([3]; HF+TT3, 40 mg/kg/day oral): 82.31 mg/dL
- expression level of p-AMPK/t-AMPK proteins in liver (phospho-AMPK(Thr172); HF+TT1, 10 mg/kg/day oral): significantly increased
- expression level of phospho-AMPK/total-AMPK in skeletal muscle (phospho-AMPK(Thr172); HF+TT1, 10 mg/kg/day oral): significantly increased
- expression level of p-AMPK/t-AMPK proteins in liver (phospho-AMPK(Thr172); HF+TT2, 20 mg/kg/day oral): significantly increased
- expression level of phospho-AMPK/total-AMPK in skeletal muscle (phospho-AMPK(Thr172); HF+TT2, 20 mg/kg/day oral): significantly increased
- expression level of p-AMPK/t-AMPK proteins in liver (phospho-AMPK(Thr172); HF+TT3, 40 mg/kg/day oral): significantly increased
- expression level of phospho-AMPK/total-AMPK in skeletal muscle (phospho-AMPK(Thr172); HF+TT3, 40 mg/kg/day oral): significantly increased

— patent US20190030046A1, “USE OF PURE COMPOUNDS EXTRACTED FROM ANTRODIA CAMPHORATA” (priority 2016, published 2019)
